Assay results: patent US8758782B2, “Excipient preservatives and pharmaceutical compositions comprised thereof” (Galderma Research & Development, priority 2007, dated 2014)

Legend:
[1] = tested on: Aspergillus niger, reference ATCC 16404; test: Preservative Efficacy Test (PET), Aspergillus niger; assay type: cell-based; parameters: key to Moulds, Aspergillus Niger: −: No European pharmacopoeia criterion or USP criterion is met; +: for the coli: the USP criteria are met; ++: the European pharmacopoeia criteria A are met; settings: additive in standard emulsion at its given % (EDTA 0.15, citric acid 2, sodium ascorbate 2, tocopherol 0.05, BHT 1, propyl gallate 0.1, ascorbyl palmitate 1)
Source text: (§1) A particular problem that must be solved by the invention is that of effectively protecting a pharmaceutical topical composition while at the same time meeting the criteria required by the European and U.S. pharmacopoeias. This is because, since the purpose of the pharmaceutical composition is to become a pharmaceutical product with a marketing authorization, it is imperative for the composition according to the invention to meet these criteria. In order to verify this point and to determine the antimicrobial action of the various mixtures of excipients according to the invention, a test protocol, known as the PET (Preservative Efficacy Test), exists. The PET comprises artificially inoculating the compositions with a known number of microorganisms, and then determining the decrease in the latter in the compositions tested, at given times. The protocol of this test is set up in order to abide by the recommendations of the European and U.S. pharmacopoeias. […] The mixture of excipients as preservatives, described herein, should therefore meet the criteria of these pharmacopoeias in the PET. This test comprises artificially contaminating aliquots of formulation by means of a calibrated inoculum of specific microorganisms and incubating the same at precise temperatures. Samples are taken from the contaminated aliquots at given time intervals in order to count the microorganisms. Fungi: • Candida albicans, reference ATCC 10231; NCPF 3179; IP 48.72. • Aspergillus niger, reference ATCC 16404; IMI 149007; IP 1431.83. Fungi: • Candida albicans, reference ATCC 10231. • Aspergillus niger, reference ATCC 16404.

[2] = tested on: Escherichia coli, reference ATCC 8739; test: Preservative Efficacy Test (PET), Escherichia coli; assay type: cell-based; parameters: key to Gram− bacterium, Esoherichia coli: −: No European pharmacopoeia criterion or USP criterion is met; +: for the coli: the USP criteria are met; ++: the European pharmacopoeia criteria A are met; settings: additive in standard emulsion
Source text: (§2) A particular problem that must be solved by the invention is that of effectively protecting a pharmaceutical topical composition while at the same time meeting the criteria required by the European and U.S. pharmacopoeias. This is because, since the purpose of the pharmaceutical composition is to become a pharmaceutical product with a marketing authorization, it is imperative for the composition according to the invention to meet these criteria. In order to verify this point and to determine the antimicrobial action of the various mixtures of excipients according to the invention, a test protocol, known as the PET (Preservative Efficacy Test), exists. The PET comprises artificially inoculating the compositions with a known number of microorganisms, and then determining the decrease in the latter in the compositions tested, at given times. The protocol of this test is set up in order to abide by the recommendations of the European and U.S. pharmacopoeias. […] The mixture of excipients as preservatives, described herein, should therefore meet the criteria of these pharmacopoeias in the PET. This test comprises artificially contaminating aliquots of formulation by means of a calibrated inoculum of specific microorganisms and incubating the same at precise temperatures. Samples are taken from the contaminated aliquots at given time intervals in order to count the microorganisms. Bacteria: • Escherichia coli, reference ATCC 8739. • Pseudomonas aeruginosa, reference ATCC 9027. • Staphylococcus aureus, reference ATCC 6538.

[3] = pH of the emulsion containing the additive; assay type: physicochemical; settings: standard emulsion with 2% citric acid
[4] = tested on: Staphylococcus aureus, reference ATCC 6538; test: Preservative Efficacy Test (PET), Staphylococcus aureus; assay type: cell-based; parameters: key to Gram+ bacterium, Staphylococcus aureus: −: No European pharmacopoeia criterion or USP criterion is met; +: for the coli: the USP criteria are met; ++: the European pharmacopoeia criteria A are met; settings: additive in standard emulsion
Source text: as §2, with “Bacteria: • Pseudomonas aeruginosa, reference ATCC 9027; NCIMB 8626; CIP 82.118. • Staphylococcus aureus, reference ATCC 6538; NCTC 10788; NCIMB 9518; CIP 4.83. Bacteria: • Escherichia coli,” for “Bacteria: • Escherichia coli,”

[5] = tested on: Pseudomonas aeruginosa, reference ATCC 9027; test: Preservative Efficacy Test (PET), Pseudomonas aeruginosa; assay type: cell-based; parameters: key to Gram− bacterium, Pseudomonas aeruginosa: −: No European pharmacopoeia criterion or USP criterion is met; +: for the coli: the USP criteria are met; ++: the European pharmacopoeia criteria A are met; settings: additive in standard emulsion
Source text: as §2, with “Bacteria: • Pseudomonas aeruginosa, reference ATCC 9027; NCIMB 8626; CIP 82.118. • Staphylococcus aureus, reference ATCC 6538; NCTC 10788; NCIMB 9518; CIP 4.83. Bacteria: • Escherichia coli,” for “Bacteria: • Escherichia coli,”

[6] = tested on: Candida albicans, reference ATCC 10231; test: Preservative Efficacy Test (PET), Candida albicans; assay type: cell-based; parameters: key to Yeast, Candida albicans: −: No European pharmacopoeia criterion or USP criterion is met; +: for the coli: the USP criteria are met; ++: the European pharmacopoeia criteria A are met; settings: additive in standard emulsion
Source text: as §1

[7] = tested on: Bacteria and fungi (Escherichia coli, Pseudomonas aeruginosa, Staphylococcus aureus, Candida albicans, Aspergillus niger); test: PET, overall compliance with European and U.S. pharmacopoeia criteria; assay type: cell-based; settings: additive in standard emulsion
Source text: A particular problem that must be solved by the invention is that of effectively protecting a pharmaceutical topical composition while at the same time meeting the criteria required by the European and U.S. pharmacopoeias. This is because, since the purpose of the pharmaceutical composition is to become a pharmaceutical product with a marketing authorization, it is imperative for the composition according to the invention to meet these criteria. In order to verify this point and to determine the antimicrobial action of the various mixtures of excipients according to the invention, a test protocol, known as the PET (Preservative Efficacy Test), exists. The PET comprises artificially inoculating the compositions with a known number of microorganisms, and then determining the decrease in the latter in the compositions tested, at given times. The protocol of this test is set up in order to abide by the recommendations of the European and U.S. pharmacopoeias. The test and also the recommendations of the European and U.S. pharmacopoeias are described in Example 1 to follow. The mixture of excipients as preservatives, described herein, should therefore meet the criteria of these pharmacopoeias in the PET.
This test comprises artificially contaminating aliquots of formulation by means of a calibrated inoculum of specific microorganisms and incubating the same at precise temperatures. Samples are taken from the contaminated aliquots at given time intervals in order to count the microorganisms.
It also makes it obligatory to study the reductions in population of the microorganisms introduced into the formulation according to two acceptability criteria.
Since the A criteria are the most strict, it are […] generally required that they be met.
In justified cases, when the A criteria cannot be complied with, for example owing to an increase in the risk of adverse reactions, the B criteria, which are less drastic, apply.
NI (Non-Increase) signifies that there must not be an increase in the number of microorganisms.
It imposes logarithmic reductions in the population of microorganisms which are different than that of the European pharmacopoeia.

Structure (SMILES): O=C(O)CC(O)(CC(=O)O)C(=O)O [Citric acid]
- Moulds, Aspergillus Niger [1]: −
- Gram− bacterium, Esoherichia coli [2]: +
- pH [3]: 2.04
- Gram+ bacterium, Staphylococcus aureus [4]: ++
- Gram− bacterium, Pseudomonas aeruginosa [5]: ++
- Action on Candida albicans [6]: inhibits
- Yeast, Candida albicans [6]: ++
- Efficacy on the microorganisms as a whole / spectrum of efficacy [7]: bactericidal
